Results on 16 compounds are retold here after ChEMBL document CHEMBL1201862, “PubChem BioAssay data set” (2004).

Holding throughout (experiment): growth of human tumour cells (NCI), 48 h
The test system of assay [1] is SK-MEL-28.
Assay [2] relates to IGROV-1.
For assay [3], the system named is HOP-92.
In assay [4] the test system is SNB-75.
Assay [5] has as its system HL-60.
Assay [6] relates to UO-31.
For assay [7], the system named is 786-0.
Assay [8] concerns MOLT-4.
The test system of assay [9] is NCI-H522.
The test system of assay [10] is SF-539.
Assay [11] concerns A549.
Assay [12] relates to KM12.
Assay [13] relates to K562.
The subject of assay [14] is RXF 393.

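In this assay, cells in 96-well plates receive the compound at five concentrations for 48 hours. Endpoints are linearly interpolated between the surrounding concentrations. GI50 = concentration required for 50% inhibition of growth.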 Active and inactive are the calls of the source. No stated cut-off is given here; in the data, active = GI50 up to about 1.1 µM and inactive = higher.

As for `Cc1ccc(S(=O)(=O)C(C#N)c2nc3ccccc3nc2-n2ccnc2)cc1` (centres undefined), the GI50 in assay [1], in assay [2], in assay [3], in [4], in assay [5] and in [6] was > 100 µM (inactive) each time. In addition, the GI50 in assay [7], in [8], in assay [9], in [10], in assay [11] and in assay [12] was > 100 µM (inactive) in each case. The GI50 in assay [13] was > 100 µM (inactive).

For `O=c1c2ccccc2nc2n1-c1ccccc1SC2`, the GI50 in [1] was 71.3 µM (inactive); in assay [2] it was 66.5 µM (inactive); in [3] it was 55.1 µM (inactive); in assay [4], 17.7 µM (inactive); in assay [6], 48.2 µM (inactive); in assay [7], > 100 µM (inactive). Also, the GI50 in assay [8] is 21.4 µM (inactive); in [14], 58.3 µM (inactive); in assay [9], 20.5 µM (inactive); in assay [10], > 100 µM (inactive); in assay [11], > 100 µM (inactive); in [12], 29.5 µM (inactive). For the same compound, the GI50 in assay [13] is 36.7 µM (inactive).

On to `Cc1cc(N(CCC#N)CCC#N)ccc1/N=N/c1ccc([N+](=O)[O-])cc1`, for which the GI50 in assay [1] is > 100 µM (inactive); in [3], 55 µM (inactive); in [4], > 10 µM (inactive); in [5], > 100 µM (inactive); in [6] it was > 100 µM (inactive); in assay [7], 43 µM (inactive). Besides, the GI50 in [8] is > 100 µM (inactive); in [14] it was 32.5 µM (inactive); in assay [9], > 100 µM (inactive); in assay [10], > 100 µM (inactive); in assay [11], > 100 µM (inactive); in [12], > 100 µM (inactive). In addition, the GI50 in assay [13] was > 100 µM (inactive).

As for `Nc1nc(N)c2ncn(CCOC(c3ccccc3)P(=O)(O)O)c2n1` (centres undefined), the GI50 in assay [1], in [2], in assay [4], in [5], in assay [6] and in assay [7] was > 100 µM (inactive) throughout. The GI50 in assay [8], in assay [14], in [9], in [10], in assay [11] and in assay [12] was > 100 µM (inactive) throughout.

As to `Cc1cc(C2CCCCC2)n(O)c(=O)c1` [CICLOPIROX OLAMINE], the GI50 was 12.6 µM (inactive) in assay [1]; 3.46 µM (inactive) in assay [2]; 0.605 µM (active) in assay [3]; 5.46 µM (inactive) in [4]; 0.178 µM (active) in assay [5]; 6.32 µM (inactive) in [6]. Further, the GI50 is 9.48 µM (inactive) in assay [7]; 1.93 µM (inactive) in assay [8]; 16.5 µM (inactive) in assay [14]; 2.96 µM (inactive) in [9]; 5.52 µM (inactive) in [10]; 3.91 µM (inactive) in [11]. Further, the GI50 in assay [12] is 4.66 µM (inactive); in assay [13], 3.41 µM (inactive).

Regarding `N#CN1CCC=C(c2cc3ccccc3[nH]2)C1`, the GI50 in [1] is 382 µM (inactive); in [2] it was 277 µM (inactive); in assay [3] it was 146 µM (inactive); in assay [5], 164 µM (inactive); in assay [7], > 448 µM (inactive); in [8] it was 230 µM (inactive). The GI50 is 256 µM (inactive) in [14]; 109 µM (inactive) in [9]; > 448 µM (inactive) in assay [10]; 394 µM (inactive) in assay [11]; 161 µM (inactive) in assay [12]; 421 µM (inactive) in assay [13].

In the case of `COc1cc(C(=O)CC2(O)C(=O)Nc3c(Cl)cc(Cl)cc32)ccc1O` (centres undefined), the GI50 is > 100 µM (inactive) in assay [1]; 23.8 µM (inactive) in assay [3]; 24.2 µM (inactive) in [4]; 36.2 µM (inactive) in assay [5]; 37.9 µM (inactive) in assay [6]; > 100 µM (inactive) in assay [7]. Moreover, the GI50 in [8] was 26.3 µM (inactive); in [14], 27.5 µM (inactive); in assay [9] it was 47.8 µM (inactive); in assay [11], 55 µM (inactive); in [12], 78.3 µM (inactive); in [13] it was 35.5 µM (inactive).

`CCOC(=O)C(=O)Nc1c(C)cccc1CC`: the GI50 in assay [1], in assay [2], in [3], in assay [5], in assay [6] and in assay [7] was > 100 µM (inactive) each time. The GI50 in assay [8], in assay [14], in assay [9], in assay [10], in assay [11] and in assay [12] was > 100 µM (inactive) in each case. In assay [13], the GI50 is > 100 µM (inactive).

`O=[N+]([O-])c1ccc2nc3ccscc-3c2c1`: the GI50 in [1] was 27.8 µM (inactive); in assay [2], 27.4 µM (inactive); in [3] it was 10.8 µM (inactive); in assay [5] it was 4.81 µM (inactive); in assay [6] it was 8.13 µM (inactive); in assay [7], 19.5 µM (inactive). Also, the GI50 is 5.87 µM (inactive) in assay [8]; 12.4 µM (inactive) in assay [9]; 8.49 µM (inactive) in assay [10]; 18.3 µM (inactive) in assay [11]; 7.52 µM (inactive) in assay [12]; 4.6 µM (inactive) in assay [13].

For `CNS(=O)(=O)NNS(=O)(=O)c1ccc(C)cc1`, the GI50 in [1], in [2], in [3], in assay [5], in assay [6] and in assay [7] was > 100 µM (inactive) throughout. The GI50 in assay [8], in assay [14], in assay [9], in [10], in assay [11] and in assay [12] was > 100 µM (inactive) in each case. Also, the GI50 in assay [13] was > 100 µM (inactive).

With `NC(CCc1nc(-c2ccc(Cl)cc2)cs1)C(=O)O` (centres undefined), the GI50 in assay [1] was > 100 µM (inactive); in assay [2] it was > 100 µM (inactive); in assay [3], > 73.5 µM (inactive); in assay [4], > 100 µM (inactive); in [5], > 100 µM (inactive); in [6] it was > 100 µM (inactive). The GI50 in assay [7], in [8], in [14], in assay [9], in [11] and in [12] was > 100 µM (inactive) each time.

In the case of `Cc1cc(OCC(O)CO)ccc1-c1ccccc1` (centres undefined), the GI50 is > 100 µM (inactive) in assay [1]; > 100 µM (inactive) in assay [2]; 92.5 µM (inactive) in [3]; > 100 µM (inactive) in assay [4]; 61.1 µM (inactive) in [5]; > 100 µM (inactive) in assay [6]. The GI50 in assay [7] is > 100 µM (inactive); in [8], > 100 µM (inactive); in assay [14] it was 21.2 µM (inactive); in assay [9] it was > 100 µM (inactive); in [11] it was > 100 µM (inactive); in assay [12], > 100 µM (inactive). In addition, in assay [13], the GI50 is > 100 µM (inactive).

Consider `CN(C)CCn1cnc2sc3ccccc3c21`, for which the GI50 in assay [1] was > 100 µM (inactive); in [2], > 100 µM (inactive); in [4], 22.2 µM (inactive); in assay [7], > 100 µM (inactive); in assay [8], > 100 µM (inactive); in assay [14], 82.8 µM (inactive). The GI50 in assay [9], in assay [10], in assay [11], in [12] and in [13] was > 100 µM (inactive) throughout.

Turning to `Cc1cccc(C)c1NC(=O)CCCC(=O)CC(=O)/C=C/c1ccccc1`, the GI50 in assay [1], in [2], in [3], in assay [4], in assay [6] and in assay [7] was > 100 µM (inactive) in each case. Besides, the GI50 in assay [8], in assay [14], in assay [9], in assay [10], in [11] and in [12] was > 100 µM (inactive) each time. Also, in assay [13], the GI50 is > 100 µM (inactive).

Regarding `COc1cc(C)c2c(c1C)OC(=O)c1c(C)c(Cl)c(O)c(C=O)c1O2`, the GI50 in assay [2] was 24.2 µM (inactive); in assay [4], 14.3 µM (inactive); in assay [5] it was 9.02 µM (inactive); in [6], 11.2 µM (inactive); in [7], 10.4 µM (inactive); in assay [8] it was 9.79 µM (inactive). Moreover, the GI50 is 12.2 µM (inactive) in assay [10], 12.8 µM (inactive) in [11], 15.4 µM (inactive) in assay [12] and 18.5 µM (inactive) in assay [13].

In the case of `O=C1N2Cc3c4ccc5c3CN3C(=O)N6Cc7c(ccc(c7CN1C6(c1ccccc1)C23c1ccccc1)OCCOCCNCCOCCO4)OCCOCCNCCOCCO5` (centres undefined), the GI50 was > 100 µM (inactive) in assay [1]; 65.8 µM (inactive) in assay [2]; 18 µM (inactive) in assay [3]; > 100 µM (inactive) in assay [4]; 38.8 µM (inactive) in [6]; 31.5 µM (inactive) in assay [7]. Also, the GI50 is 19.7 µM (inactive) in [8]; 33.2 µM (inactive) in [14]; > 100 µM (inactive) in [9]; 56.9 µM (inactive) in assay [10]; 28.6 µM (inactive) in [11]; 18.5 µM (inactive) in [12]. In addition, in assay [13], the GI50 was 69.7 µM (inactive).
